Source: US5104858A, “Sensitizing multidrug resistant cells to antitumor agents” (priority 1988, dated 1992)
“Also recorded” adds a separate entry of the source. Where two headings read alike, the source gives them in different places. One block for each compound: values may come before it.

Columns and labels:
[1] = system: MCF-7/DOX cells; experiment: Inhibition of MCF-7/DOX cell growth, microtiter methylene blue staining assay, 48 h; type: cell-based, human
[2] = system: MCF-7/DOX cells; experiment: Antagonism of multidrug resistance (sensitization to doxorubicin) in MCF-7/DOX cells, MDR Ratio; type: cell-based, human; details: for MDR Ratio (IC50 doxorubicin alone / IC50 doxorubicin in presence of modifier): 48 h
[3] = biological target: T1, Calmodulin (Bos taurus, UniProt P62157); experiment: biochemical
[4] = Norman and Drummond; cited from earlier work
[5] = system: MCF-7/DOX cells; experiment: Cellular accumulation of doxorubicin in MDR MCF-7/DOX cells; type: cell-based, human; details: 3 hours, 15 μM doxorubicin
[6] = system: KC/ADR10 human breast cells; details: Ahn et al; cited from earlier work
[7] = system: L1210/DOX cells; details: Ganapathi and Grabowski; cited from earlier work
[8] = system: MCF-7/DOX cells; details: Fine et al; cited from earlier work
[9] = system: clinically resistant cancer; details: with doxorubicin or bleomycin, Phase I, cited from earlier work
[10] = system: P-glycoprotein; details: MDR Chinese hamster lung cells, Center; cited from earlier work
[11] = system: MCF-7/DOX cells; experiment: Cellular accumulation of cis and trans-flupenthixol in MCF-7/DOX cells; type: cell-based, human; details: for cell associated drug concentration at 3 μM / cell associated drug concentration at 10 μM / cell associated drug concentration at 100 μM: 3 hour incubation; for cellular accumulation of thioxanthene isomers, in words: MDR cells
Description: Cells were washed three times in cold PBS by centrifugation at 100× g for 10 minutes, resuspended in 2 ml of 0.3N HCl in 50% ethanol, and sonicated for 10 pulses at 200 ws with a Tekmar cell sonicator (Tekmar, Cincinnati, Ohio). Following centrifugation at 1000× g for 30 minutes, the supernatant was removed and assayed for drug content with a Perkin-Elmer 512 spectrofluorometer (Norwalk, Conn.). Optimal excitation and emission wavelengths for both thioxanthene isomers were determined to be 320 nm and 400 nm, respectively.

[12] = biological target: T1, Calmodulin; details: Norman and Drummond; cited from earlier work
[13] = system: acute schizophrenia; details: humans; cited from earlier work
[14] = Homo sapiens, MCF7-DOX, 48 h, MCF-7/DOX cells, 48 h, drug alone; read-out: IC50 for cell growth inhibition
[15] = MCF-7/DOX cells, 48 h, drug alone; read-out: IC50 for cell growth inhibition
[16] = Homo sapiens, MCF7-DOX, 48 h, read-out: IC50 for cell growth inhibition
[17] = Homo sapiens, MCF7-DOX, 48 h; read-out: IC50 for cell growth inhibition
[18] = read-out: IC50 for cell growth inhibition
[19] = Homo sapiens, MCF7-DOX, 48 h, MCF-7/DOX cells, 48 h, structurally related compounds; read-out: Cell Growth Inhibition IC50 (Table 5)
[20] = Homo sapiens, MCF7-DOX, 48 h, read-out: concentration which alone produces 10% inhibition of cell growth
[21] = Homo sapiens, MCF7-DOX, 48 h; read-out: Cell Growth Inhibition IC50 (Table 5)

IC50 [1, 14]: 21 µM
IC50 [3]: 74 µM
SMILES: CN(C)CCCN1c2ccccc2Sc2cccc(Cl)c21 [1-Chlorpromazine]
MDR Ratio (IC50 doxorubicin alone / IC50 doxorubicin in presence of modifier) [2]: 1.3

IC50 [1, 14]: 27 µM
IC50 [3]: 60 µM
SMILES: CN(C)CCN1c2ccccc2Sc2ccc(Cl)cc21 [2-Chloro-10-[2-(dimethylamino)ethyl] phenothiazine]
MDR Ratio (IC50 doxorubicin alone / IC50 doxorubicin in presence of modifier) [2]: 1.5

IC50 [1, 14]: 7 µM
IC50 [3]: 40 µM
SMILES: CN(C)CCCCN1c2ccccc2Sc2ccc(Cl)cc21 [2-Chloro-10-[4-(dimethylamino)butyl] phenothiazine]
MDR Ratio (IC50 doxorubicin alone / IC50 doxorubicin in presence of modifier) [2]: 2.0

IC50 [1, 14]: 400 µM
IC50 [3]: 183 µM
SMILES: CN(C)CCCN1c2cc(O)ccc2Sc2cc(O)c(Cl)cc21 [3,8-Dihydroxychlorpromazine]
MDR Ratio (IC50 doxorubicin alone / IC50 doxorubicin in presence of modifier) [2]: 0.9

IC50 [1, 14]: 10 µM
IC50 [3]: 24 µM
SMILES: CN(C)CCCN1c2ccccc2Sc2cc(Cl)ccc21 [3-Chlorpromazine]
MDR Ratio (IC50 doxorubicin alone / IC50 doxorubicin in presence of modifier) [2]: 1.3

IC50 [1, 14]: 15 µM
IC50 [3]: 25 µM
SMILES: CN(C)CCCN1c2ccccc2Sc2c(Cl)cccc21 [4-Chlorpromazine]
MDR Ratio (IC50 doxorubicin alone / IC50 doxorubicin in presence of modifier) [2]: 1.4

IC50 [1, 14]: 63 µM
IC50 [3]: 82 µM
SMILES: CN(C)CCCN1c2cc(Cl)ccc2Sc2cc(O)c(O)cc21 [7,8-Dihydroxychlorpromazine]
MDR Ratio (IC50 doxorubicin alone / IC50 doxorubicin in presence of modifier) [2]: 0.8

IC50 [1, 14]: 50 µM
IC50 [3]: 68 µM
SMILES: CN(C)CCCN1c2ccc(O)cc2Sc2ccc(Cl)cc21 [7-Hydroxychlorpromazine]
relative potency in inhibiting cell growth (fold less potent) ([1]; versus chlorpromazine): 6 fold
MDR Ratio (IC50 doxorubicin alone / IC50 doxorubicin in presence of modifier) [2]: 1.0

IC50 [1, 14]: 8 to 12 µM
IC50 [1, 15]: 12 µM
IC50 [3]: 28 µM
SMILES: CCN(CC)CCCN1c2ccccc2Sc2ccc(Cl)cc21 [Chlorproethazine]
MDR Ratio (IC50 doxorubicin alone / IC50 doxorubicin in presence of modifier) [2]: 2.2

IC50 [1, 14]: 8 to 12 µM
IC50 ([1]; MCF-7/DOX cells, 48 h, drug alone; listed as desmethylchlorpromazine; read-out: IC50 for cell growth inhibition): 8 µM
IC50 [1, 15]: 8 µM
IC50 [3]: 45 µM
SMILES: CNCCCN1c2ccccc2Sc2ccc(Cl)cc21 [Desmethylchlorpromazine]
MDR Ratio (IC50 doxorubicin alone / IC50 doxorubicin in presence of modifier) [2]: 1.2

IC50 [1, 14]: 8 to 12 µM
IC50 [1, 15]: 11 µM
IC50 [3]: 38 µM
SMILES: NCCCN1c2ccccc2Sc2ccc(Cl)cc21 [Didesmethylchlorpromazine]
MDR Ratio (IC50 doxorubicin alone / IC50 doxorubicin in presence of modifier) [2]: 1.1

IC50 [1, 14]: 20 µM
IC50 [3]: 42 µM
SMILES: CSc1ccc2c(c1)N(CCCN(C)C)c1ccccc1S2 [Thiomethylpromazine]
MDR Ratio (IC50 doxorubicin alone / IC50 doxorubicin in presence of modifier) [2]: 1.5

Second part, the compound before the results:

SMILES: CN(C)CCCN1c2ccccc2[S+]([O-])c2ccc(Cl)cc21 (stereo not shown) [Chlorpromazine Sulfoxide]
inhibition of cell growth, comparison in words [1]: lost most of its antiproliferative effect
IC50 [1, 16]: 500 µM
anti-MDR activity, comparison in words [2]: retained its effect against MDR
IC50 [3]: 2200 µM

SMILES: CN(C)CCCN1c2ccccc2Sc2ccc(Cl)cc21 [Chlorpromazine]
IC50 [1, 17]: 8 µM
IC50 [1, 18]: 8 to 12 µM
octanol:buffer partition coefficient (log P) [4]: 4.04
sensitization of MCF-7/DOX cells to doxorubicin [2]: 60%

SMILES: COc1cccc2c1C(=O)c1c(O)c3c(c(O)c1C2=O)C[C@@](O)(C(=O)CO)C[C@@H]3O[C@H]1C[C@H](N)[C@H](O)[C@H](C)O1 [Doxorubicin]
doxorubicin accumulation, fold less in MCF-7/DOX than in sensitive cell line [5]: approximately 10 fold
IC50 [1, 16]: 12 µM
resistance to doxorubicin of MCF-7/DOX cells relative to parental cell line ([1]; human, mcf-7/dox cells): approximately 200 fold

SMILES: CC1CNCCN1S(=O)(=O)c1cccc2cnccc12 (stereo not shown) [H-7, 1-(5-isoquinolinylsulfonyl)-2-methylpiperazine]
sensitization of KC/ADR10 human breast cells [6]: does sensitize KC/ADR10 human breast cells
sensitization of L1210/DOX cells [7]: failed to sensitize L1210/DOX cells

SMILES: CN(C)CCCN1c2ccccc2CCc2ccccc21 [Imipramine]
IC50 [1, 19]: 19 µM
IC50 [3]: 125 µM

SMILES: OC1(c2ccc(Cl)c(C(F)(F)F)c2)CCN(CCCC(c2ccc(F)cc2)c2ccc(F)cc2)CC1 [Penfluridol]
IC50 [1, 19]: 3 µM
MDR Ratio (IC50 doxorubicin alone / IC50 doxorubicin in presence of modifier) [2]: 2.0
IC50 [3]: 3 µM

SMILES: OCCN1CCN(CCCN2c3ccccc3Sc3ccc(Cl)cc32)CC1 [Perphenazine]
IC50 [1, 17]: 32 µM

SMILES: O=c1[nH]c2ccccc2n1C1CCN(CCCC(c2ccc(F)cc2)c2ccc(F)cc2)CC1 [Pimozide]
octanol:buffer partition coefficient (log P) [4]: 4.88
IC50 [3]: 7 µM

SMILES: CN(C)CCCN1c2ccccc2Sc2ccccc21 [Promazine]
IC50 [1, 14]: 26 µM
IC50 [1, 15]: 27 µM
MDR Ratio (IC50 doxorubicin alone / IC50 doxorubicin in presence of modifier) [2]: 1.2
sensitization of MCF-7/DOX cells to doxorubicin ([2]; modifier at 10% growth inhibitory concentration): 20%
IC50 [3]: 110 µM

SMILES: CC(CN1c2ccccc2Sc2ccccc21)N(C)C (stereo not shown) [Promethazine]
inhibition of cell growth, comparison in words [1]: less potent inhibitor of cell growth than promazine
IC50 [1, 17]: 29 µM

SMILES: CCN(CC)CCCC(C)Nc1c2ccc(Cl)cc2nc2ccc(OC)cc12 (stereo not shown) [Quinacrine]
IC50 [1, 19]: 3 µM
MDR Ratio (IC50 doxorubicin alone / IC50 doxorubicin in presence of modifier) [2]: 1.3
IC50 [3]: 42 µM

SMILES: CN1CCN(CCCN2c3ccccc3Sc3ccc(C(F)(F)F)cc32)CC1 [Trifluoperazine]
reversal of phorbol ester effects on anthracycline resistance [8]: reversed
IC50 [1, 17]: 19 µM
dose limiting side effects in combination trials [9]: Extrapyramidal side effects have proven to be dose limiting
dose limiting side effects in combination trials ([9]; listed as trifluperazine): extrapyramidal side effects
phosphorylation of P-glycoprotein, doxorubicin accumulation and cytotoxicity [10]: increased phosphorylation of this protein in MDR Chinese hamster lung cells and enhanced doxorubicin accumulation and cytotoxicity

SMILES: CN(C)CCCN1c2ccccc2Sc2ccc(C(F)(F)F)cc21 [Trifluopromazine]
IC50 [1, 17]: 16 µM
IC50 [1, 18]: 14 µM

SMILES: OCCN1CCN(CC/C=C2/c3ccccc3Sc3ccc(C(F)(F)F)cc32)CC1 [cis-Flupenthixol]
IC10 [1, 20]: 3 µM
IC50 [1, 21]: 24 µM
octanol:buffer partition coefficient (log P) [4]: 4.25
cell associated drug concentration at 3 μM [11]: 830 ± 80 pmol/10^6 cells
cell associated drug concentration at 10 μM [11]: 1420 ± 250 pmol/10^6 cells
cell associated drug concentration at 100 μM [11]: 7000 ± 330 pmol/10^6 cells
cellular accumulation of thioxanthene isomers, in words [11]: equivalent, dose-dependent fashion
anti-CaM effect of thioxanthene stereoisomers [12]: no difference between cis and trans-flupenthixol

SMILES: OCCN1CCN(CC/C=C2\c3ccccc3Sc3ccc(C(F)(F)F)cc32)CC1 [trans-Flupenthixol]
extrapyramidal side effects / toxicity of flupenthixol isomers [13]: lacks these side effects; also recorded: far less toxic; also recorded: apparent lack of extrapyramidal side effects
IC50 [1, 16]: 25 µM
IC10 [1, 20]: 6 µM
IC50 [1, 21]: 25 µM
octanol:buffer partition coefficient (log P) [4]: 4.25
cell associated drug concentration at 3 μM [11]: 420 ± 80 pmol/10^6 cells
cell associated drug concentration at 10 μM [11]: 1000 ± 250 pmol/10^6 cells
cell associated drug concentration at 100 μM [11]: 6000 ± 330 pmol/10^6 cells
cellular accumulation of thioxanthene isomers, in words [11]: equivalent, dose-dependent fashion
anti-CaM effect of thioxanthene stereoisomers [12]: no difference between cis and trans-flupenthixol
